The source of these data is US20080306055A1, “Heterocyclic Mchr1 Antagonists And Their Use In Therapy” (ASTRAZENECA AB, priority 2004, published 2008).

In one assay the target is T1, recombinant hMCHr1 (Homo sapiens, UniProt Q99705).
T1 construct: purchased Euroscreen
As to the kind of experiment: MCHr1 functional assay ([35S]GTPγS binding, membranes). The format is biochemical. The following applies: ED80 concentration of MCH, antagonist mode. How it is done: Membranes expressing recombinant hMCHr1 ([…] protein; Euroscreen) were prepared in assay buffer (50 mM HEPES, 100 mM NaCl, 5 mM MgCl2, 1 mM EDTA, 200 μM DTT, 20 μM GDP (Sigma) containing 0.1 μg/ml BSA, pH7.4) before assay. The assays were performed using membranes at 6 μg/well in an assay volume of 200 μL and the appropriate concentrations of compounds prepared in DMSO. The reaction was started by addition of 0.056 nM [^35S]GTPγS (Specific activity >1000 Ci/mmol; Amersham) and an ED80 concentration of MCH (determined for each membrane and each MCH batch). Non-specific binding was determined using 20 μM non-radiolabelled GTPγS. Plates were incubated for 45 min at 30° C. Free and bound GTPγS were separated by filtration binding using GF/B filter mats presoaked in wash buffer (50 mM Tris, 5 mM MgCl2, 50 mM NaCl, pH 7.4) using a Micro96 cell harvester (Skatron Instruments) and the filters then dried at 50° C. before counting using a 1450 Microbeta TRILUX (Wallac).
Data are means ±SD for experiments performed in triplicate. IC50 values of antagonists were determined using non-linear regression analysis of concentration response curves using Activity Base. For instance, the following IC50 values were obtained for the compounds of the following examples: […]

In assay [1] the target is T2, human Melanin concentrating hormone receptor 1 (hMCHr1) (Homo sapiens, UniProt Q99705).
T2 construct: purchased Euroscreen; host or cells: CHO-K1
T2 sequence (Q99705 whole entry): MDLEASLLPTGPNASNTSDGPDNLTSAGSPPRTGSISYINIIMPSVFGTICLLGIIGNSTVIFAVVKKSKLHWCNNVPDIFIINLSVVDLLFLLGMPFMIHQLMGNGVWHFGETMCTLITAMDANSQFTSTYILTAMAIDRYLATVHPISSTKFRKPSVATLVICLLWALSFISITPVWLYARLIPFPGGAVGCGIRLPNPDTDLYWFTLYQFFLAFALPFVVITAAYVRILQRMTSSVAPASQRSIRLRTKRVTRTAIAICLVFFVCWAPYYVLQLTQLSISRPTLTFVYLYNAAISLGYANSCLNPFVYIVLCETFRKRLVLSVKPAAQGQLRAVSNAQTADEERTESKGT
Kind of assay: MCH1 receptor radioligand binding (125I-MCH, CHO-K1 membranes). The conditions noted are these: 125I-MCH displacement, membranes from CHO-K1 cells expressing hMCHr1; read-out: IC50 in human MCHr1 binding assay. How it is done:
MCH1 Receptor Radioligand Binding.
Assays were performed on membranes prepared from CHO-K1 cells expressing the human Melanin concentrating hormone receptor 1 (hMCHr1, 5.45 pmol/mg protein; Euroscreen). Assays were performed in a 96-well plate format in a final reaction volume of 200 μl per well. Each well contained 6 μg of membrane proteins diluted in binding buffer (50 mM Tris, 3 mM MgCl2, 0.05% bovine serum albumin and the radioligand ^125I-MCH (IM344 Amersham) was added to give 10 000 cpm (counts per minute) per well. Each well contained 2 μl of the appropriate concentration of competitive antagonist prepared in DMSO and left to stand at 30° C. for 60 minutes. Non-specific binding was determined as that remaining following incubation with […] MCH (Melanin concentrating hormone, H-1482 Bachem). The reaction was terminated by transfer of the reaction to GF/A filters using a Micro96 Harvester (Skatron Instruments, Norway). Filters were washed with assay buffer. Radioligand retained on the filters was quantified using a 1450 Microbeta TRILUX (Wallac, Finland).
Non-specific binding was subtracted from all values determined. Maximum binding was that determined in the absence of any competitor following subtraction of the value determined for non-specific binding. Binding of compounds at various concentrations was plotted according to the equation
A is the bottom plateau of the curve i.e. the final minimum y value
B is the top of the plateau of the curve i.e. the final maximum y value
C is the x value at the middle of the curve. This represents the log EC50 value when A+B=100
D is, the slope factor. x is the original known x values. y is the original known y values.

The next assay addresses HERG (Homo sapiens, UniProt Q12809). As to the kind of experiment: HERG activity (planar-array-based voltage clamp). The conditions noted are these: modified planar-array voltage clamp method. The format is cell-based. As for the experimental part:
HERG testing was performed using a modified version of the method described by Kiss L, Bennett P B, Uebele V N, Koblan K S, Kane S A, Neagle B, Schroeder K. “High throughput ion-channel pharmacology: planar-array-based voltage clamp” Assay Drug Dev Technol. 1, 127-35. (2003).

Bounds are passed on as bounds.

T1 sequence (Q99705 whole entry): as above
Chain of HERG (Q12809 whole entry): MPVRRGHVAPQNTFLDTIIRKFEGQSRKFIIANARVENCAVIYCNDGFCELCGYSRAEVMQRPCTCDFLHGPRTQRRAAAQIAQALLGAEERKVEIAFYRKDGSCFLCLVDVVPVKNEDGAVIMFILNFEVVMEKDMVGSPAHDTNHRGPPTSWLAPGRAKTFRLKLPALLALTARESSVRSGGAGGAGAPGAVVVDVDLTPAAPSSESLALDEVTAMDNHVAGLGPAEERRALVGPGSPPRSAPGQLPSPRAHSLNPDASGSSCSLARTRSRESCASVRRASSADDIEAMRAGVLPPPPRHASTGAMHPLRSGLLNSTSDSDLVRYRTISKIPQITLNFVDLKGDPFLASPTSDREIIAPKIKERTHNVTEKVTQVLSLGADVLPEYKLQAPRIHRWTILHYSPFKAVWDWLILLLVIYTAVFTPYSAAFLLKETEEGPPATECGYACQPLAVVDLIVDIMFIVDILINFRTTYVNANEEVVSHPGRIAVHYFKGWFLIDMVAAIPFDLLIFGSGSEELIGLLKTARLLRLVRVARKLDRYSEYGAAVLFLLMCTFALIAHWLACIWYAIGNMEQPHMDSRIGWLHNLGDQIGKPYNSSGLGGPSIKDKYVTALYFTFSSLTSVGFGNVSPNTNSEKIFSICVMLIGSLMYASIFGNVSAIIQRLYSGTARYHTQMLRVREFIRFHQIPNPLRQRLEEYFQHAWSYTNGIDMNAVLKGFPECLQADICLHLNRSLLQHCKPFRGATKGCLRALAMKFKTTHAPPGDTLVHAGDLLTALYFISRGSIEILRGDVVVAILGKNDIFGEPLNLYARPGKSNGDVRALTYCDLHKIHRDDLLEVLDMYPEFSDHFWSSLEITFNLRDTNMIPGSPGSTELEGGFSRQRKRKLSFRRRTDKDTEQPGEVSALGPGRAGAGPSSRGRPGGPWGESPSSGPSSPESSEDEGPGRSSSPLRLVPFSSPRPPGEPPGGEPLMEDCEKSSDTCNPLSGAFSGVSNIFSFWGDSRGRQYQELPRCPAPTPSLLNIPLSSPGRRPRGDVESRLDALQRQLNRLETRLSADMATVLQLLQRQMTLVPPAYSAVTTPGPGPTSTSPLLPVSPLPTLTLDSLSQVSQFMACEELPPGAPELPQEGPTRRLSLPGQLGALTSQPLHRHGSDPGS

Take `O=C(NC1CCN(Cc2ccn(-c3ccc(C(F)(F)F)cc3)c2)CC1)C(c1ccccc1)c1ccccc1` [Example 1, 2,2-diphenyl-N-[1-({1-[4-(trifluoromethyl)phenyl]-1H-pyrrol-3-yl}methyl)piperidin-4-yl]acetamide]: the IC50 at recombinant hMCHr1 came to 42 nM.

`O=C(NCCc1ccccc1)C1CCN(Cc2ccn(-c3ccc(C(F)(F)F)cc3)c2)CC1` [Example 3, N-(2-phenylethyl)-1-({1-[4-(trifluoromethyl)phenyl]-1H-pyrrol-3-yl}methyl)piperidine-4-carboxamide]: the IC50 in assay [1] was 14 nM.

For the compound `CC(O)CCNC(=O)NC1CCN(Cc2ccn(-c3ccc(C(F)(F)F)cc3)c2)CC1` (stereo not drawn) [Example 76, N-(3-hydroxybutyl)-N′-[1-({1-[4-(trifluoromethyl)phenyl]-1H-pyrrol-3-yl}methyl)piperidin-4-yl]urea], the IC50 on HERG is more than 5000 nM. For the compound `O=C(Nc1ccc(Cl)cc1Cl)NC1CCN(Cc2ccn(-c3ccc(C(F)(F)F)cc3)c2)CC1` [Example 6, N-(2,4-dichlorophenyl)-N′-[1-({1-[4-(trifluoromethyl)phenyl]-1H-pyrrol-3-yl}methyl)piperidin-4-yl]urea], in assay [1], the IC50 came out at 72 nM. For `O=C(CC1CCN(Cc2ccn(-c3ccc(C(F)(F)F)cc3)c2)CC1)NCc1ccc(F)c(F)c1` [Example 2, N-(3,4-difluorobenzyl)-2-[1-({1-[4-(trifluoromethyl)phenyl]-1H-pyrrol-3-yl}methyl)piperidin-4-yl]acetamide], the IC50 worked out at 112 nM at recombinant hMCHr1 and 12 nM in assay [1].
